Test results reported in publication PMC8920379, “The discovery of berberine erythrocyte-hemoglobin self-assembly delivery system: a neglected carrier underlying its pharmacokinetics” (Drug Delivery, 2022).
Values joined by “and” are separate entries in the source; they are usually repeats but may differ in a detail not shown here. Equal entries are not always repeated. Where two headings read alike, the source gives them in different places.

Tests used:
bovine hemoglobin (BHB) = molecular target: T1, bovine hemoglobin (BHB) (Bos taurus, UniProt P01966+P02070); experiment: Circular dichroism of BHB-BBR systems; format: binding; conditions: CD, BHB:BBR molar ratios up to 1:8, reduced from 36.87% for BHB alone, pH 7.4, 298 K
T1 construct: purchased Sigma Aldrich
T1 sequence (P01966 2-142 limits assumed): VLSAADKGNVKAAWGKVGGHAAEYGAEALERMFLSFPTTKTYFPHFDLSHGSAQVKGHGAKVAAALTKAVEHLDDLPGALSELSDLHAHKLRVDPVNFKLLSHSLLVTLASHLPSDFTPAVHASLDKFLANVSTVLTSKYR
T1 sequence (P02070 whole entry): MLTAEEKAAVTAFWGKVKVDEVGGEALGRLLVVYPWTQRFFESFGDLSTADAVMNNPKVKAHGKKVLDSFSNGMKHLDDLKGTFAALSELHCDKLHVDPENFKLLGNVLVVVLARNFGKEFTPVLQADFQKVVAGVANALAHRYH
Procedure: In addition, CD spectra were collected from 200 to 260 nm with three scans averaged for each CD spectrum. The molar ratio (1:1) of BHB: BBR was used for the measurement. Briefly, BHB and BBR were dissolved in Tris-HCl (pH 7.4), and the solutions were freeze-dried into powder. Raman spectra were measured from 2600 to 400 cm^−1 using the Nd-YAG laser (1064 nm). Due to the existence of inner filter effects, the fluorescence parameter was corrected using the equation: F=F0×10^(AEX+AEM/2) where F and F0 are the fluorescence intensity corrected and observed, respectively; AEX and AEM are the sums of the absorbance of samples at excitation and emission wavelengths (Chen et al., [2021]).
In this work, the molar ratios of 1:0, 1:2, 1:4 and 1:8 for BHB: BBR were utilized for the CD records. […] Besides, the helix of α chain can be calculated following the below equation: α−Helix(%)=−MRE208−4000/33000−4000×100 where MRE208 is the observed MRE value at 208 nm, 4000 is the MRE value of β-form and random coil conformation cross at 208 nm, and 33,000 is the MRE value of pure α-helix at 208 nm (Shobini et al., [2001]).

[1] = parameters: method as in Liu et al., 2010; Chen et al., 2011; conditions: ref Liu et al., 2010; Chen et al., 2011; cited from earlier work
[2] = Bioavailability study of BBR via intravenous and oral administration (free drug in plasma, HPLC); format: in vivo, SD rats; conditions: rat plasma; for AUC(0-t): n = 8, mean ± SEM
Procedure: Sixteen SD rats were randomly divided into two groups (n = 8) and received a single intragastrical administration (i.g.) of BBR at the dose of 400 mg/kg and intravenous injection (i.v.) at 2.5 mg/kg dose, respectively. Blood samples (0.5 mL) were obtained from the retroorbital sinus at 0.083, 0.167, 0.25, 0.5, 1, 2, 4, 8 and 24 h after administration for i.v. group and at 0.083, 0.167, 0.25, 0.5, 1, 2, 4, 8 and 24 h for i.g. groups. The plasma samples were processed with a protein precipitation method using acetonitrile and the concentration of free drug was analyzed by HPLC (Li et al., [2016]).

[3] = Erythrocytes/plasma partition coefficient of BBR in vivo; parameters: species or system SD rats; conditions: for Ce (drug concentration in erythrocytes) / Ce/p (erythrocytes/plasma partition coefficient) / Cp (drug concentration in plasma): individual rats no. 1-6
Procedure: After six SD rats were intravenously administrated with BBR, blood samples were obtained from posterior orbital venous plexus to a heparinized tube at 5, 30, and 120 min, respectively, and then centrifuged at 2500 rpm for 10 min. After centrifugation, the upper layer (plasma) was collected, while the lower layer (blood cells) was washed three times with physiological saline and centrifuged for 5 min at 3000 rpm, and then resuspended in an appropriate volume of physiological saline, which was obtained as erythrocytes to perform the following procedure:
Piperine was added into the obtained plasma as the internal standard substance and then the samples were mixed with acetonitrile to precipitate protein. The mixtures were centrifuged at 8000 rpm for 10 min. The supernatants were collected and dried. The eluates were concentrated and re-dissolved for analysis.
The obtained erythrocytes were mixed with piperine and HC, and placed in a water bath at 60 °C for 6 h and then centrifuged at 12,000 rpm for 10 min. The supernatant was obtained and injected through a solid-phase extraction to separate drugs and impurities. The filtrate was collected, dried, and then re-dissolved with 200 μL acetonitrile for HPLC analysis (Chen et al., [2021]).

[4] = SD, intravenous administration 2.5 mg/kg, n = 8
[5] = SD, oral administration 400 mg/kg, n = 8

COc1ccc2cc3[n+](cc2c1OC)CCc1cc2c(cc1-3)OCO2 [BBR, Berberine]
α-helicity of BHB after addition of BBR (bovine hemoglobin (BHB)): 33.53%
oral bioavailability [1]: less than 1%
AUC(0-inf) [2, 4]: 7440 ± 548 ng·h/mL
MRT [2, 4]: 5.6 ± 0.561 h
AUC(0-t) ([2]; SD, intravenous administration 2.5 mg/kg): 6420 ± 685 ng·h/mL
Cmax ([2]; SD, intravenous administration 2.5 mg/kg, n = 8, read-out: Cmax/C0 (C0)): 2830 ± 132 ng/mL
AUC(0-inf) [2, 5]: 685 ± 93 ng·h/mL
MRT [2, 5]: 4.53 ± 0.515 h
Tmax [2, 5]: 1 h
AUC(0-t) ([2]; SD, oral administration 400 mg/kg): 681 ± 93 ng·h/mL
CL/F ([2]; SD, oral administration 400 mg/kg, n = 8, read-out: Clz/F (converted)): 254 L/h/kg
Cmax ([2]; SD, oral administration 400 mg/kg, n = 8, read-out: Cmax/C0 (Cmax)): 260 ± 32 ng/mL
t1/2z ([2]; intravenous administration 2.5 mg/kg, n = 8, 2.5 mg/kg): 3.885 ± 0.389 h
t1/2z ([2]; oral administration 400 mg/kg, n = 8, 400 mg/kg): 3.136 ± 0.357 h
Ce (drug concentration in erythrocytes) ([3]; 5 min after 2.5 mg/kg): 1.313 µM and 0.039 µM and 0.000 µM and 0.375 µM and 0.862 µM and 0.584 µM
Ce/p (erythrocytes/plasma partition coefficient) ([3]; 5 min after 2.5 mg/kg): ∞ and 0.081 and 1.610 and 3.700 and 1.405
Cp (drug concentration in plasma) ([3]; 5 min after 2.5 mg/kg): 0 nM and 489 nM and 233 nM and 416 nM
Ce (drug concentration in erythrocytes) ([3]; 30 min after 2.5 mg/kg): 0.044 µM and 0.212 µM and 0.026 µM and 0.176 µM and 0.539 µM
Ce/p (erythrocytes/plasma partition coefficient) ([3]; 30 min after 2.5 mg/kg): ∞ and 0.090 and 0.897 and 0.875
Cp (drug concentration in plasma) ([3]; 30 min after 2.5 mg/kg): 0 nM and 282 nM and 197 nM and 616 nM
Ce (drug concentration in erythrocytes) ([3]; 120 min after 2.5 mg/kg): 0.225 µM and 0.000 µM and 0.132 µM
Ce/p (erythrocytes/plasma partition coefficient) ([3]; 120 min after 2.5 mg/kg): ∞
Cp (drug concentration in plasma) ([3]; 120 min after 2.5 mg/kg): 0 nM and 1243 nM
Kp at 5 min ([3]; SD, rat, erythrocytes/plasma, iv, 2.5 mg/kg, 5 min after intravenous administration, rats, read-out: Ce/p value (group value)): 1.67 ± 1.5
Kp at 30 min ([3]; SD, rat, erythrocytes/plasma, iv, 2.5 mg/kg, 30 min after intravenous administration, rats, read-out: Ce/p value (group value)): 0.62 ± 0.6
